According to US10517952B2, “Nucleophile-triggered degradable materials and methods of making and using the same” (GEORGIA TECH RESEARCH CORPORATION, priority 2014, dated 2019):

What was measured:
[1] = Release of entrained cargo from PEG-OND hydrogels; assay type: physicochemical; conditions: pH 7.4 PBS, 37° C.; first-order fit
Method: Finally, the diffusion of entrained, rather than covalently anchored, cargos of different sizes out of OND hydrogels of differing stabilities was measured. This was done with a small molecule (carboxyfluorescein), a globular protein (fluorescein-labeled bovine serum albumin, BSA), and a 30-nm protein nanoparticle (fluorescein-labeled bacteriophage Qb virus-like particle). The first and last species have no available thiol groups; the second was reacted with N-ethylmaleimide before gelation to cap cysteine-34 and avoid tethering of the protein cargo to the hydrogel network. Hydrogels derived from 4-PEG-SH and 7a, 7b, or 8 were formed in the presence of each cargo; the speed of this reaction made it highly unlikely that OND connectors were addressed by protein amine groups under these conditions.
Three sets of three 60 μL gels were prepared using linkers 7a, 7b, and 8, respectively. The first set contained 1 mM small molecule probe 5/6-carboxyfluorescein, while the second and third sets contained FITC labeled BSA and Qβ virus-like particle, respectively. The gels were allowed to set for 30 minutes at room temperature before dilution with 3 mL of pH 7.4 100 mM phosphate buffered saline. The samples were incubated at 37° C. and the increase in absorbance of the supernatant at 497 nm was monitored. The fraction of released dye was plotted against incubation time. Least-squares kinetic fitting to a first-order rate law was performed for release profiles obtained for carboxyfluorescein cargo, and for the release of BSA from non-degradable PEG-EONB (8) hydrogel (Solver plug-in, Microsoft Excel).

[2] = Degradation of neat PEG-OND hydrogels (inversion test, time-lapse photography); assay type: physicochemical; conditions: neat gel; for Time gel is stable / collapses (inversion test): no swelling buffer
Method: Degradation rates of the PEG-OND hydrogels in the absence of swelling buffer varied with temperature and with the identity of OND used to form the gel. […] In comparison, gels formed using 7b were stable for more than 60 hours at 37° C., and approximately 13 hours at 50° C.
Three 500 μL 3.5 wt % hydrogels were formed with bis-ONDs 7a and 7b, and bis-EONB 8, respectively, in 2 mL vials with caps. The sealed vials were incubated in an oil bath maintained at 50° C. The samples were periodically removed from heat and the vials were inverted to determine if the gel was still intact, or whether the sample was a free-flowing liquid, as described in the main text. The gel formed between 4-PEG-SH and bis-EONB 8 in FIG. 9 was removed from heat after 5 days, and stored at room temperature in a sealed vial. The hydrogel is still intact at the time of writing (5 days at 50° C. followed by >1 year at room temperature). The inversion test was routinely used in all stability experiments to verify hydrogel integrity during incubation.
In order to observe reverse gelation upon prolonged heating of neat hydrogels, time-lapse photography was carried out. Briefly, 600 μL hydrogels comprised of 3.5 wt % 4-PEG-SH+bis-OND/EONB (7a, 7b, and 8, respectively) in pH 7.4 100 mM potassium phosphate buffer containing 7% DMSO (v/v) were formed in glass culture tubes and allowed to set for 15 minutes. A glass bead (˜160 mg, stained with blue Sharpie-brand marker to improve visibility) was placed carefully on top of each gel, and a drop of silicon oil was added to prevent evaporation at the surface of the gels. The tubes were sealed with lab parafilm and incubated in a 50° C. oil bath. Photos were collected every 2 minutes for ˜22 hours using Chronolapse software (v.1.0.4) and a Creative Labs webcam. Photographs were compiled in chronological order using iMovie software, with each photo occupying one 0.1 s frame. The resulting video is available as S1 Video, mentioned above.

[3] = Equilibrium swelling, gel fraction and Mc (Flory-Rehner) of PEG-OND hydrogels; assay type: physicochemical; conditions: for Mc (apparent molecular weight between elastic crosslinks): calculated with the Flory-Rehner equation from swelling results; for Gel Fraction: mass of dry residue post-swelling/input mass of OND and 4-PEG-SH; for Equilibrium Swelling Ratio: mass post-swelling/mass pre-swelling, deionized water, 4° C., 24 hours, n = 3 gels
Method: The swelling of the PEG-OND hydrogels in deionized water was measured at 4° C. to prevent significant fragmentation during the experiment. […] An independent experiment measuring soluble fraction thiol content yielded results complementing those obtained gravimetrically (Table S3, and related discussion below). With the knowledge that small molecules can readily permeate swollen PEG-OND hydrogels (see below), detecting and modifying residual thiols in gels prepared from divalent linkers 7a and 8 by swelling in the presence of a fluorogenic OND derivative was attempted (FIG. 15, and related discussion below).
200 μL gels were prepared in pH 7.4 100 mM phosphate buffered saline containing 7% DMSO with 3.5 wt % 4-PEG-SH and the corresponding bis-, tris-, and tetra-ONDs to provide a 1:1 thiol to electrophile ratio, and allowed to cure for 20 minutes at room temperature. The mass of the gels after curing was recorded (Meq) before suspending in 5.5 mL of water. The hydrogels were stored at 4° C. during swelling to prevent significant degradation of the network during the experiment. The increase in mass of the gels was monitored periodically by decanting and blotting the gel gently with a kimwipe to remove excess water before weighing. After 24 hours swelling, when swelling had stabilized, the mass of the gel was recorded (Meq). The equilibrium mass swelling ratio was then determined using the following relationship:
After weighing equilibrium-swelled gels to determine equilibrium mass swelling ratio, the gels were freeze-dried and the residual mass was weighed (Mres). It is expected that buffer salts present in the sample when it was formed were removed by the multiple changes of swelling solvent (pure water). The mass of the remaining residue was compared to the input mass (Min) of 4-PEG-SH macromer and OND-based linker. The ratio of the residual mass and the input mass provides the fraction of material by mass incorporated into the hydrogel network (gel fraction), as shown in the following equation: […]
The apparent molecular weight between elastically-productive crosslinks (Mc) was determined from equilibrium swelling data, collected as described in section VII.1 and applying a modified form of the Flory-Rehner equation for networks formed under dilute conditions:
[formula] where Mn is the number average molecular weight for the polymeric macromer (10,000 g/mol), v is the specific volume of the polymer ([…] for PEG) V1 is the molar volume of solvent used for swelling ([…] for water), χ is the polymer-interaction parameter (0.43 for PEG-H2O and assumed constant for the described experiments). V2, and V2, are the volume fraction of polymer in the equilibrium swollen gel and the relaxed gel after curing, respectively, and are calculated as follows:
[formula] where qw is the weight swelling ratio after equilibrium swelling, qF is the weight swelling ratio after curing, ρp is the density of the polymer (1.12 g/cm^3 for PEG), ρwater=ρcure solvent is the density of swelling solvent and solvent during gel formation (1.00 g/cm^3 for water). The weight swelling ratios qw and qF are determined from data gathered in equilibrium swelling experiments using the following relationships:
[formula] where ms is the mass of the gel after equilibrium swelling, mc is the mass of the gel after curing, and md is the mass of the dried gel, or input mass of polymer and crosslinkers.
Using the formulae above, masses of hydrogel samples recorded after equilibrium swelling, curing, and drying were applied to estimate the apparent molecular weight between crosslinks, which are summarized in Table 1 of the main text. The experimentally observed Mc values for gels formed using divalent OND linkers was lower than theoretical ideal value Mc,ideal. This can be explained by the fact that the Mc,ideal values calculated for these gels (entries 1-5 of Table S1) are greater than the entanglement molecular weight for polyethylene glycol (˜4,400 g/mol). […]

[4] = Calculation of hydrogel mesh size from equilibrium swelling data; assay type: physicochemical; conditions: for Calculated mesh size: equilibrium-swollen gels
Method: Using the calculated molecular weight between crosslinks, Mc, and the method previously described by Canal and Peppas, the hydrogel mesh size was calculated. First, the root-mean-square end-to-end distance of the polymer chains in the network, (r0^2)^1/2, was calculated as follows: (r0^2)^1/2=lCn^1/2n^1/2 (Equation S10) where l is the average bond length in the polymer (0.146 nm for PEG) and Cn is the characteristic ratio of the polymer (4.0 for PEG). The average number of bonds between crosslinks, n is calculated using the following equation:
[formula] where Mc is the average molecular weight between crosslinks, calculated as described in the previous section, and Mr is the molecular weight of the repeating unit for the PEG macromer (44 g/mol). Finally, the mesh size, ξ, is calculated using the following relationship: ξ=v2,s^−1/3(r0^2)^1/2 (Equation S12) where v2, is the partial volume of polymer in the equilibrium swollen hydrogel, and is calculated using the experimentally determined equilibrium weight swelling ratios.

For “5/6-carboxyfluorescein [reference compound]”, the “kdiffusion of entrained cargo out of PEG-OND hydrogels” value [1] was 0.000183 ± 8.3e-06 s⁻¹.
For CCOC(=O)C1=C(C(F)(F)F)C2C=CC1(CNC(=O)CCCC(=O)NCC13C=CC(O1)C(C(F)(F)F)=C3C(=O)OCC)O2 [Linker 7b, Diethyl 1,1′-((glutaroylbis(azanediyl))bis(methylene))bis(3-(trifluoromethyl)-7-oxabicyclo[2.2.1]hepta-2,5-diene-2-carboxylate)], the melting point was 166 to 169 °C, the “Gel integrity on extended heating (inversion test)” value ([2]; 50° C.) was “collapsed” and the “Gel stability by time-lapse photography, gel supporting a glass bead” value ([2]; heating (50° C.)) was “more stable than those made with 7a”. For the same molecule, the “Time gel is stable / collapses (inversion test)” value ([2]; 37° C.) was “more than 60 hours”, the “Time gel is stable / collapses (inversion test)” value ([2]; 50° C.) was “approximately 13 hours” and the “Mc (apparent molecular weight between elastic crosslinks)” value [3] was 3698 ± 16 g/mol. For the same molecule, the “Gel Fraction” value [3] was 0.96 ± 0.02, the “Equilibrium Swelling Ratio” value [3] was 1.40 ± 0.02 and the Average mesh size ([4]; average for equilibrium swelled hydrogels from linkers 7a, 7b and 8) was 14.0±1.0 nm. For the same molecule, the Calculated mesh size [4] was 13.1 ± 0.1 nm.
For CCOC(=O)C1=C(C(F)(F)F)C2C=CC1(CNC(=O)CCCC(=O)NCC13C=CC(O1)C(C(=O)OC)=C3C(=O)OC)O2 (centres unmarked) [Linker 10, Dimethyl 1-((5-(((2-(ethoxycarbonyl)-3-(trifluoromethyl)-7-oxabicyclo[2.2.1]hepta-2,5-dien-1-yl)methyl)amino)-5-oxopentanamido)methyl)-7-oxabicyclo[2.2.1]hepta-2,5-diene-2,3-dicarboxylate], the melting point was 93 to 97 °C, the “Mc (apparent molecular weight between elastic crosslinks)” value [3] was 4112 ± 94 g/mol and the “Gel Fraction” value [3] was 0.98 ± 0.04. The “Equilibrium Swelling Ratio” value [3] was 1.87 ± 0.12 and the Calculated mesh size [4] was 15.1 ± 1.3 nm.
In the case of “Bovine serum albumin: globular protein cargo, fluorescein-labeled bovine serum albumin”, the “kdiffusion of entrained cargo out of PEG-OND hydrogels” value [1] is reported as 1.4e-05 ± 2.8e-06 s⁻¹.
